# Measured values from patent publication US10723751B2 (priority 2013, dated 2020).
# Like-named read-outs stand apart in the source and are kept apart here.
# Key:
# [1] = test system: Kennel cough, Giardia and Isospora infections; experiment: Treatment of Kennel cough, Giardia and Isospora infections in a dog
# Candida albicans = experiment: Treatment of recurring Candida albicans vaginal yeast infection; format: in vivo, human
# Text: A volunteer 57 kg body weight with frequent recurring vaginal Candida albicans infection was diagnosed and treated by their gynecologist over a period of 15 years. The reccurrence frequency was 2-3 flare ups every year for the past 15 years. […] However, 3-6 months later the infection would again appear. Chlorhexidine wash was also tried to prevent recurrence to no effect.
# No flare-up has been detected for at least three years. No other treatment was used since there had been no recurrence.
# [2] = known substances; cited from earlier work
# herpes simplex labialis = experiment: Treatment of herpes simplex labialis; format: in vivo, human
# Text: A volunteer, 54 kg suffered from recurring herpes outbreaks on the lip. The outbreaks happened about every two years and were associated with immune compromised conditions like stress, concurrent upper respiratory infection and menstrual cycles. The outbreaks last approximately 7-9 days and no spontaneous remission of an outbreak had occurred.
# The outbreaks always followed a predictable progression and included a tingling sensation, redness and swelling of about 5 mm area on upper right side middle of the lip and 2-4 days after the onset blisters appear that turns into a scab that last about 5 days. The only medicine that could slightly alter this course was Zovirax crema/acyclovir/if the treatment began at the first sign of an outbreak. No other medicine had any effect on alleviating symptoms. With the treatment of Zovirax the blister size smaller (about 4 mm in diameter) and the duration of the outbreak was shorter (to approximately 5 days).
# Topical and oral cyanogenic composition medications were applied simultaneously with no other medication.
# Pseudomonas Aeruginosa = experiment: Aerobic Culture and Mic from ear swab
# bacterial pneumonia = experiment: Treatment of bacterial pneumonia in a cat; format: in vivo; conditions: before the cyanogenic composition
# [3] = cited from earlier work
# respiratory infection = experiment: Treatment of therapy resistant respiratory infection in a cat; format: in vivo; conditions: clavamox oral, five days later convenia injections
# Procedure: A two year old domestic short hair cat, six pounds, body weight, temp 102° F. emaciated cat came from a cat holding facility and was FIV and FELV negative. Its clinical symptoms: very severe wheezing respiration, very moist cough, frequent sneezing all day beginning 10 days previously. The cat had been treated in another hospital previously with antibiotics: first, clavamox oral/contains amoxicillin and with β-lactamase-inhibiting effect clavulanic acid known as for powerful, broad-spectrum antimicrobial activity. […] CBC chemistry blood work was performed. The only abnormality was a 40% increase in Monocytes above the highest normal, and mild anemia.
# [4] = Treatment of chronic suppurative prostatitis / prostate abscess in a dog; conditions: in vivo
# Procedure: An eight year old Akita dog presented suffering from chronic, recurring prostatitis with typical clinical symptoms associated with the condition. […] This condition had worsened in the previous eight months, causing significant suffering by the pet and frustration to the dog's owner.
# In the second week the dose was adjusted to 5 mg/kg inj. twice/day. […] The treatment continued in the 3rd week with 2 mg/bw kg dose twice/day.
# Rhodococcus equi = experiment: Antibiotic sensitivity testing of the foal's bacterial culture; format: cell-based
molecule,measurement,setting,value
CC[C@H]1OC(=O)[C@H](C)[C@@H](O[C@H]2C[C@@](C)(OC)[C@@H](O)[C@H](C)O2)[C@H](C)[C@@H](O[C@@H]2O[C@H](C)C[C@H](N(C)C)[C@H]2O)[C@](C)(O)C[C@@H](C)CN(C)[C@H](C)[C@@H](O)[C@]1(C)O [Azithromycin],outcome of previous treatment,"[1]; Azithromycin and Clavamox at therapeutic dose, about 2 weeks",the symptoms did not abate
"[H]/N=C(\N/C(=N/[H])NCCCCCCNC(=N)NC(=N)Nc1ccc(Cl)cc1)Nc1ccc(Cl)cc1 [Chlorhexidine wash, Chlorhexidine]",prevention of recurrence,Candida albicans; in vivo,no effect
[Cl-].[Na+] [Table salt],LD50,[2],300 mg/kg
"Nc1nc2c(ncn2COCCO)c(=O)[nH]1 [Zovirax, acyclovir]",blister size in diameter,herpes simplex labialis; treatment begun at first sign of an outbreak,about 4 mm
same,duration of the outbreak,herpes simplex labialis; untreated approximately 7-9 days,about 5 days
NCC[C@H](O)C(=O)N[C@@H]1C[C@H](N)[C@@H](O[C@H]2O[C@H](CN)[C@@H](O)[C@H](O)[C@H]2O)[C@H](O)[C@H]1O[C@H]1O[C@H](CO)[C@@H](O)[C@H](N)[C@H]1O [amikacin],MIC,Pseudomonas Aeruginosa; Pseudomonas aeruginosa,≤ 8 µg/mL
same,sensitive / resistant,Pseudomonas Aeruginosa; ear swab isolate,S
CC1(C)S[C@@H]2[C@H](NC(=O)[C@H](N)c3ccc(O)cc3)C(=O)N2[C@H]1C(=O)O [amoxicillin],outcome of previous treatment,bacterial pneumonia,slight improvement followed by a relapse
same,sensitive / resistant,Pseudomonas Aeruginosa; ear swab isolate,R
CC1(C)S[C@@H]2[C@H](NC(=O)[C@H](N)c3ccccc3)C(=O)N2[C@H]1C(=O)O [ampicillin],sensitive / resistant,Pseudomonas Aeruginosa; ear swab isolate,R
N#C[C@H](O[C@@H]1O[C@H](CO[C@@H]2O[C@H](CO)[C@@H](O)[C@H](O)[C@H]2O)[C@@H](O)[C@H](O)[C@H]1O)c1ccccc1 [amygdalin],LD50,[3]; literature,about 900 mg/body weight kg
same,LD 50 of oral amygdalin,"[3]; oral, scientific literature",400 to 900 mg/kg
CC(=O)Oc1ccccc1C(=O)O [aspirin],LD50,[2],200 to 1200 mg/kg
Cc1nnc(SCC2=C(C(=O)O)N3C(=O)[C@@H](NC(=O)Cn4cnnn4)[C@H]3SC2)s1 [cefazolin],sensitive / resistant,Pseudomonas Aeruginosa; ear swab isolate,R
CO/N=C(/C(=O)N[C@@H]1C(=O)N2C(C(=O)O)=C([C@@H]3CCCO3)CS[C@H]12)c1csc(N)n1 [cefovecin],sensitive / resistant,Pseudomonas Aeruginosa; ear swab isolate,R
CO[C@@]1(NC(=O)Cc2cccs2)C(=O)N2C(C(=O)O)=C(COC(N)=O)CS[C@@H]21 [cefoxitin],MIC,Pseudomonas Aeruginosa; Pseudomonas aeruginosa,≥ 32 µg/mL
same,sensitive / resistant,Pseudomonas Aeruginosa; ear swab isolate,R
COCC1=C(C(=O)O)N2C(=O)[C@@H](NC(=O)/C(=N\OC)c3csc(N)n3)[C@H]2SC1 [cefpodoxime],MIC,Pseudomonas Aeruginosa; Pseudomonas aeruginosa,≥ 8 µg/mL
same,sensitive / resistant,Pseudomonas Aeruginosa; ear swab isolate,R
CO/N=C(\C(=O)N[C@@H]1C(=O)N2C(C(=O)O)=C(CSC(=O)c3ccco3)CS[C@H]12)c1csc(N)n1 [ceftiofur],MIC,Pseudomonas Aeruginosa; Pseudomonas aeruginosa,≥ 8 µg/mL
same,sensitive / resistant,Pseudomonas Aeruginosa; ear swab isolate,R
CC1=C(C(=O)O)N2C(=O)[C@@H](NC(=O)[C@H](N)c3ccc(O)cc3)[C@H]2SC1 [cephadroxil],sensitive / resistant,Pseudomonas Aeruginosa; ear swab isolate,R
CC1=C(C(=O)O)N2C(=O)[C@@H](NC(=O)[C@H](N)c3ccccc3)[C@H]2SC1 [cephalexin],sensitive / resistant,Pseudomonas Aeruginosa; ear swab isolate,R
CO/N=C(/C(=O)N[C@@H]1C(=O)N2C(C(=O)[O-])=C([C@@H]3CCCO3)CS[C@H]12)c1csc(N)n1.[Na+] [convenia],outcome of previous antibiotic treatment,respiratory infection,the condition continued to worsen
CCN1CCN(c2cc3c(cc2F)c(=O)c(C(=O)O)cn3C2CC2)CC1 [enrofloxacin],outcome of previous antibiotic treatment,[4],"only temporary mild improvement, followed by a quick relapse"
same,outcome of previous treatment,"[1]; switched to Enrofloxacin, Clavomox continued",the symptoms continued to worsen
same,MIC,Pseudomonas Aeruginosa; Pseudomonas aeruginosa,≤ 0.5 µg/mL
same,sensitive / resistant,Pseudomonas Aeruginosa; ear swab isolate,S
CC[C@H]1OC(=O)[C@H](C)[C@@H](O[C@H]2C[C@@](C)(OC)[C@@H](O)[C@H](C)O2)[C@H](C)[C@@H](O[C@@H]2O[C@H](C)C[C@H](N(C)C)[C@H]2O)[C@](C)(O)C[C@@H](C)C(=O)[C@H](C)[C@@H](O)[C@]1(C)O [erythromycin],antibiotic sensitivity,Rhodococcus equi,resistance
Clc1ccccc1C(c1ccccc1)(c1ccccc1)n1ccnc1 [lotrimazole],outcome of previous treatment,"Candida albicans; oral capsule and cream 5-7 days, infection again after 3-6 months",good symptomatic response
CN1CCN(c2c(F)cc3c(=O)c(C(=O)O)cn4c3c2OCN4C)CC1 [marbofloxacin],MIC,Pseudomonas Aeruginosa; Pseudomonas aeruginosa,≤ 1 µg/mL
same,sensitive / resistant,Pseudomonas Aeruginosa; ear swab isolate,S
CO[C@H]1/C=C/O[C@@]2(C)Oc3c(C)c(O)c4c(O)c(c(/C=N/N5CCN(C)CC5)c(O)c4c3C2=O)NC(=O)/C(C)=C\C=C\[C@H](C)[C@H](O)[C@@H](C)[C@@H](O)[C@@H](C)[C@H](OC(C)=O)[C@@H]1C [rifampin],antibiotic sensitivity,Rhodococcus equi,resistance
gentamicin,sensitive / resistant,Pseudomonas Aeruginosa; ear swab isolate,S
same,MIC,"Pseudomonas Aeruginosa; ear swab isolate, heavy growth",<= 2 ug/ml
